Results as given in US9790193B2, “Semicarbazide-sensitive amine oxidase inhibitors for use as analgesics in traumatic neuropathy and neurogenic inflammation” (PÉCSI TUDOMÁNYEGYETEM, priority 2014, dated 2017).
“Also recorded” adds a separate entry of the source.

Experiments:
[1] = system: sciatic nerve ligation-induced cold allodynia; assay: Sciatic nerve ligation-induced cold allodynia in mice (paw withdrawal latency from 0° C. water); type: in vivo, male C57Bl/6 mice; settings: mouse, injured paw, days 3 and 7 after nerve ligation
Method: (§1) On the 3rd and on the 7th day following the nerve ligation, the mechano-nociceptive thresholds were determined directly before and 15 min after i.p. drug administration to observe the difference between pre-injection and post-injection thresholds in mice. We determined the developing cold allodynia following the sciatic nerve ligation at Days 3 and 7. In rats we examined the developing mechanical allodynia just 7 days after the sciatic nerve ligation on the same way like in mice. Only animals with a minimum of 25% hyperalgesia/allodynia were included in the study (Seltzer et al., Pain., 1990, 43(2):205-18; Pintér et al., Naunyn Schmiedebergs Arch Pharmacol., 2002, 366(2):142-50.).
Mice were anaesthesized with a combination of ketamine and xylazine (100 mg/kg and 5 mg/kg i.p. respectively), but in rats Na-pentobarbital (40 mg/kg i.p) were used. […]
A noxious cold stimulus was applied by immersing one of the murine hindpaws in icy water, remaining the temperature steady at 0° C. Cold perception was assessed as the time taken by the animal to pulling out its paw from the cold water, the cut-off time was 180 seconds. […]
The paw withdrawal latency values were determined as % by comparing the latencies measured on day 3 and 7 after the operation to the mean initial latency values. […] Results are expressed as means±s.e.m of the withdrawal behaviour latency changes of n=6-6 mice per groups. […]

RTX-induced hyperalgesia = assay: Resiniferatoxin-evoked thermal and mechanical hyperalgesia in mice; type: in vivo, male C57Bl/6 mice; settings: mouse; for drop of mechanonociceptive threshold after RTX at 2 hours: solvent group 47.1±6%; for acute neurogenic inflammatory heat allodynia: only significant in case of SZV-1287 after RTX
Method: (§2) The solutions were prepared freshly on the day of the experiment with sterile saline. SZV-1287 (prepared according to WO 2010/029379 A1) dissolved in saline and the solution was clear. The SZV-1911 (prepared according to WO2006/094201 and WO2005/014530) solution was prepared with Tween 80 and ethanol, stirred properly with a vortex, heated moderately to 42° C. and sonicated, but it was still opalescent. The i.p. administered volume was 0.2 ml/100 g body weight from 10 mg/ml in rats solution and 0.1 m/10 g body weight from 2 mg/ml solution to achieve the 20 mg/kg doses. The solvent of SZV-1911 was given to the vehicle-treated animals in the same volume.
(§3) Sciatic nerve ligation-induced traumatic mononeuropathy experiments were performed on male Wistar rats (250-300 g), and on male C57Bl/6 mice as well as resiniferatoxin- or formalin-induced hyperalgesia. The original breeding pairs of the animals were purchased from Charles River Ltd. All the animals were kept in the Animal Facility of the Department of Pharmacology and Pharmacotherapy at the University of Pécs at 24-25° C. provided with standard chow and water ad libitum.
(§4) The mechanical touch sensitivity thresholds of the plantar surface of the paws was determined by aesthesiometry (Ugo Basile Dynamic Plantar Aesthesiometer 37400; Comerio, Italy). This is an electronic von Frey device, in which the animals moved about freely in one of the compartments of the enclosure positioned on the metal mesh surface. Following acclimation after cessation of exploratory behaviour, the touch stimulator unit was placed under the animal's paw, using the adjustable angled-mirror to position the filament below the target area of the plantar surface. Then an electrodynamic actuator of proprietary design lifted a straight metal filament, which touched the plantar surface and began to exert an increasing upward force at a preset rate of application until a stop signal (removal of the paw) was attained. The paw withdrawal threshold was obtained in grams. Hyperalgesia or allodynia (decrease of the withdrawal thresholds) was expressed as percentage by comparing the data of each individual animal to the averaged three initial control thresholds.
Resiniferatoxin (RTX) is a potent agonist of Transient Receptor Potential Vanilloid 1 (TRPV1) receptors, which are mainly expressed on capsicin-sensitive sensory nerve ending. Intraplantarly (i.pl.) injection of RTX (0.03 μg/ml; 20 μl) into one of the hindpaws induced an acute inflammation and a robust drop of heat and mechanical thresholds.
The noxious heat threshold of the paw, defined as the lowest temperature evoking nocifensive behaviour—was measured with an increasing-temperature hot plate (IITC Life Science, Woodland Hills, Calif., USA). After habituation, mice were placed onto the plate, which was then heated up from room temperature at a rate of 12° C./min until the animals showing nocifensive behaviour (licking, lifting or shaking one of the hindpaws). The corresponding plate temperature was considered as the noxious heat threshold.
Lines represent thermal and mechanical hyperalgesia before drug injection and 5, 10, 15, 20 min as well as 2, 4, 6, 24 hours, respectively after compound/solvent administration. Results are expressed as means±s.e.m. of the thermo- and mechanonociceptive threshold changes of n=7-8 per groups. Data were analysed with Two-way ANOVA following Bonferroni's post-test in comparison to determine differences between the pre- and post-injection values of the respective groups **p<0.01, *** p<0.001 SZV-1287 vs. saline and ### p<0.001 SZV-1911 vs. saline.

[2] = system: sciatic nerve ligation-induced mechanical allodynia; assay: Sciatic nerve ligation-induced traumatic mononeuropathy, mechanical allodynia in rats (dynamic plantar aesthesiometry); type: in vivo, male Wistar rats; settings: for change of the mechanonociceptive thresholds, contralateral side of the operated rats / inhibitory effect on mechanical allodynia / mechanical allodynia (decrease of withdrawal threshold vs initial control) after drug injection: rat; for change of the mechanonociceptive thresholds, contralateral side of the operated rats: contralateral paw; for change of the mechanonociceptive thresholds, contralateral side of the operated rats / mechanical allodynia (decrease of withdrawal threshold vs initial control) after drug injection / change of the mechanonociceptive thresholds, sham-operated group: 20 mg/kg i.p.; for inhibitory effect on mechanical allodynia / mechanical allodynia (decrease of withdrawal threshold vs initial control) after drug injection: operated limb; for inhibitory effect on mechanical allodynia: day 7, 20 mg/kg i.p., post- vs pre-injection; for mechanical allodynia (decrease of withdrawal threshold vs initial control) after drug injection: day 7 after nerve ligation, 15 min after administration, mean±s.e.m.; for change of the mechanonociceptive thresholds, sham-operated group: sham-operated rats
Method: as §2, §3
Before all experiments one conditioning and three reliable control threshold measurements were performed on three consecutive days. All operations were performed by the same operator, who was blinded to the animal group assignments and the treatment allocation (FIG. 1A for the rat, B for the mouse experimental paradigm).
as §1
Mice were anaesthesized with a combination of ketamine and xylazine (100 mg/kg and 5 mg/kg i.p. respectively), but in rats Na-pentobarbital (40 mg/kg i.p) were used. The common sciatic nerve was exposed unilaterally on the right side high in the thigh and ⅓-½ of the nerve trunk was carefully separated and tightly ligated using a siliconised silk suture (Ethicone 5-0 and 8.0, respectively). Then the wound was closed and the animals were allowed to survive for 8 days (Seltzer, 1990; Malmberg and Basbaum 1998; Bolcskei et al. 2005; Sandor et al. 2010). During this period, signs of spontaneous pain (holding the legs in elevated position transiently for 2-3 days) and mechanical hyperalgesia and cold allodynia developed. In order to investigated the efficacy of these drugs we examined the drop of the mechanical touch sensitivity on Day 3, however the decrease of the mechanical threshold develops fully 7 days after the surgery.
as §4, with “Hyperalgesia or allodynia (decrease of the withdrawal thresholds) was expressed as percentage by comparing the data of each individual animal to the averaged three initial control thresholds.” left out

[3] = system: sciatic nerve ligation-induced mechanical hyperalgesia; assay: Sciatic nerve ligation-induced traumatic mononeuropathy, mechanical hyperalgesia in mice (dynamic plantar aesthesiometry); type: in vivo, male C57Bl/6 mice; settings: mouse, injured paw, single dose 20 mg/kg i.p., 15 minutes after administration, vs postoperative control values
Method: as §2
Sciatic nerve ligation-induced traumatic mononeuropathy experiments were performed on male Wistar rats (250-300 g), and on male C57Bl/6 mice as well as resiniferatoxin- or formalin-induced hyperalgesia. […]
On the 3rd and on the 7th day following the nerve ligation, the mechano-nociceptive thresholds were determined directly before and 15 min after i.p. drug administration to observe the difference between pre-injection and post-injection thresholds in mice. We determined the developing cold allodynia following the sciatic nerve ligation at Days 3 and 7. […]
The mechanical touch sensitivity thresholds of the plantar surface of the paws was determined by aesthesiometry (Ugo Basile Dynamic Plantar Aesthesiometer 37400; Comerio, Italy). […]

[4] = system: formalin-induced acute nocifensive behaviours and hyperalgesia; assay: Formalin-induced acute nocifensive behaviour and hyperalgesia in mice; type: in vivo, male C57Bl/6 mice; settings: mouse
Method: as §2
as §3, with “libitum. […]” for “libitum.”
The noxious heat threshold of the paw, defined as the lowest temperature evoking nocifensive behaviour—was measured with an increasing-temperature hot plate (IITC Life Science, Woodland Hills, Calif., USA). […]
The total duration of paw licking and lifting were expressed to representing the nociceptive behaviour. […] Mechanical hyperalgesia values were determined as % by comparing the nociceptive thresholds measured at 2 and 4 hours after the application to the initial threshold values. Results are expressed as means±s.e.m. of the thermo- and mechanonociceptive threshold changes of n=11-11 animals/groups. Data were analysed with One-way ANOVA following Bonferroni's post-test in comparison to determine differences between the pre- and post-injection values of the respective groups.

| Structure (SMILES) | neuropathic cold hyperalgesia (cold allodynia, paw withdrawal latency) [1] | drop of mechanonociceptive threshold after RTX at 2 hours (RTX-induced hyperalgesia; 20 mg/kg i.p. pretreatment) [%] | drop of heat threshold after intraplantar RTX (RTX-induced hyperalgesia; 20 mg/kg i.p. pretreatment, maintained during 15 minutes, solvent group approx. 8 degree) | acute neurogenic inflammatory heat allodynia (RTX-induced hyperalgesia) | change of the mechanonociceptive thresholds, contralateral side of the operated rats [2] | inhibitory effect on mechanical allodynia [2] | mechanical allodynia (decrease of withdrawal threshold vs initial control) after drug injection [2] [%] | change of the mechanonociceptive thresholds, sham-operated group [2] | sciatic nerve ligation-induced neuropathic mechanical hyperalgesia [3] | thermonociceptive threshold after formalin application ([4]; 1 hour, basal 44.8±1.7° C., saline treated mice 37.4±3° C.) [°C] | nocifensive behaviour (total duration of paw lickings and liftings), early phase ([4]; formalin i.pl., early phase (0-5 min), vs saline) | nocifensive behaviour (total duration of paw lickings and liftings), late phase ([4]; formalin i.pl., late phase (20-45 min), vs saline) | change of mechanonociceptive threshold after RTX at 4 hours (RTX-induced hyperalgesia; 20 mg/kg i.p. pretreatment, 4 hours, solvent group 35.3±3%) [%] | sciatic nerve ligation-induced neuropathic mechanical hyperalgesia ([3]; 20 mg/kg) |
| --- | --- | --- | --- | --- | --- | --- | --- | --- | --- | --- | --- | --- | --- | --- |
| ON=CCCc1nc(-c2ccccc2)c(-c2ccccc2)o1 [SZV-1287, 3-(4,5-diphenyl-1,3-oxazol-2-yl)propanal oxime] | did not influence | 22.1±7 | 1-2 °C | moderately decreased | No change | approximately 30% | 34.6±7.6 | No change | significantly decreased | 37.5±4 | significantly lower | significantly lower |  |  |
| C=C(CNN)c1ccccc1 [SZV-1911, (2-phenyl-2-propen-1-yl)hydrazine] | did not influence | 14.7±6 |  | moderately decreased | No change | approximately 30% | 32.9±3.4 | No change |  |  |  |  | 6.5±6 | significantly diminished; also recorded: significantly decreased |
